From ChEMBL document CHEMBL3217599, “Selective antitumour activity and ER molecular docking studies of newly synthesizedd-homo fused steroidal tetrazoles” (Medchemcomm, 2013) come the findings set out here.

The test system of one experiment is MCF7. Briefly: Cytotoxicity against human MCF7 cells expressing estrogen receptor after 48 hrs by MTT assay. The class given is functional, cell-based. Particulars: MCF7, 48 h. In general terms: Tetrazolium assays rely on reduction of a dye to a coloured formazan, in cell work by metabolically active cells.
The test system of another experiment is MDA-MB-231. Briefly: Cytotoxicity against estrogen receptor-deficient human MDA-MB-231 cells after 48 hrs by MTT assay. The class given is functional, cell-based. Particulars: MDA-MB-231, 48 h.
For a further experiment, the system named is K562. Kind of experiment: Cytotoxicity against human K562 cells expressing estrogen receptor after 48 hrs by MTT assay. The class given is functional, cell-based. Conditions: K562, 48 h.
The subject of another experiment is MRC5. Kind of experiment: Cytotoxicity against human MRC5 cells expressing estrogen receptor after 48 hrs by MTT assay. The class given is cell-based. Particulars: MRC5, 48 h.
Another experiment has as its system HeLa. Kind of experiment: Cytotoxicity against human HeLa cells expressing estrogen receptor after 48 hrs by MTT assay. The class given is functional, cell-based.
Experiment [1] deals with PC-3. Kind of experiment: Cytotoxicity against human PC3 cells expressing estrogen receptor after 48 hrs by MTT assay. Conditions: PC-3, 48 h. The class given is functional, cell-based.
Another experiment relates to HT-29. Briefly: Cytotoxicity against human HT-29 cells expressing estrogen receptor after 48 hrs by MTT assay. The class given is functional, cell-based. Particulars: HT-29, 48 h.
The subject of experiment [2] is PC-3. Briefly: Ratio of doxorubicin IC50 to compound IC50 for human PC3 cells expressing estrogen receptor after 48 hrs by MTT assay. The class given is functional.

Turning to `CC(=O)O[C@H]1CC[C@@]2(C)C(=CC[C@H]3[C@@H]4Cc5nnnn5C[C@@]4(C)CC[C@@H]32)C1`, the IC50 (usually the concentration at which inhibition is half-maximal) with MCF7 is 56.2 µM; with MDA-MB-231, above 100 µM; in the experiment on K562, 45.2 µM; with MRC5, above 100 µM; in the experiment on HeLa, above 100 µM; in the experiment with PC-3 [1], 79 µM. The IC50 in the experiment on HT-29 is above 100 µM.

Regarding `CC(=O)O[C@H]1CC[C@@]2(C)C(=CC[C@H]3[C@@H]4Cc5nnnn5[C@H](C)[C@@]4(C)CC[C@@H]32)C1`, the IC50 in the experiment with MCF7 was 25.4 µM; with MDA-MB-231, 89.6 µM; with K562, 11.1 µM; in the experiment with MRC5 it was above 100 µM; in the experiment on HeLa, above 100 µM; in the experiment on PC-3 [1], 15.3 µM. The IC50 with HT-29 was above 100 µM. The “Ratio IC50” value in the experiment with PC-3 [2] is given as above 6.

As to `C[C@]12CC[C@@H]3c4ccc(OCc5ccccc5)cc4CC[C@H]3[C@@H]1Cc1nnnn1C2`, the IC50 in the experiment with MCF7 was 12.6 µM; in the experiment with MDA-MB-231, above 100 µM; in the experiment on K562, above 100 µM; with MRC5, above 100 µM; in the experiment with HeLa, above 100 µM; with PC-3 [1], 65.5 µM. The IC50 with HT-29 is above 100 µM.

As for `C[C@H]1n2nnnc2C[C@H]2[C@@H]3CCc4cc(OCc5ccccc5)ccc4[C@H]3CC[C@@]21C`, the IC50 in the experiment on MCF7 is 4.58 µM; in the experiment with MDA-MB-231 it was above 100 µM; in the experiment with K562, above 100 µM; in the experiment on MRC5, above 100 µM; in the experiment on HeLa it was above 100 µM; in the experiment on PC-3 [1], above 100 µM. In the experiment with HT-29, this compound came in with an IC50 of 18 µM.

For the compound `COc1cccc2c1C(=O)c1c(O)c3c(c(O)c1C2=O)C[C@@](O)(C(=O)CO)C[C@@H]3O[C@H]1C[C@H](N)[C@H](O)[C@H](C)O1` [DOXORUBICIN], the IC50 with MCF7 was found to be 0.75 µM; in the experiment with K562, 0.36 µM; in the experiment with HT-29, 0.32 µM.
